Measurements as given in article PMC9032570, “Flavonoids and Phenols, the Potential Anti-Diabetic Compounds from Bauhinia strychnifolia Craib. Stem” (Molecules, 2022).
Values after ≈ are worked out from the molar mass of the structure shown. Read-outs that look alike come from different tables or passages of the source. Blank lines part the entries; values can stand above or below the compound they belong to.

What was measured:
[1] = molecular target: α-glucosidase; set-up: method as in earlier work; details: known active flavonoids from B. strychnifolia stem; cited from earlier work
[2] = tested on: LPS-induced raw 264.7 cells; test: Nitric oxide production in LPS-induced raw 264.7 cells (Griess assay); format: cell-based, murine; details: 200 ng/mL LPS, 24 h, Figure 5
Description: The investigation of the inhibitory activities against LPS induced nitric oxide (NO) production of crude extract, partitioned fractions, and isolated compounds by Griess assay, which was accomplished as described by Kaewdana et al.. Briefly, Raw264.7 cells were seeded, at the density of 1 × 10^5 cells/well, in 96-well plates. After 1–2 h culture, the medium was changed and co-treated with different concentrations of samples and 200 ng/mL LPS for 24 h. After that, the nitrite-containing medium was equally mixed with the Griess reagent (1% sulfanilamide in 5% phosphoric acid and 0.1% naphthyl ethylenediamine dihydrochloride (NED) in water) and measured by a microplate reader at 570 nm. Indomethacin (a nonsteroidal anti-inflammatory drug) was used as a positive control. Results were shown as the percentage of inhibition calculated, following the equation: [(Acontrol − Asample)/Acontrol] × 100.

[3] = molecular target: T1, α-glucosidase from Saccharomyces cerevisiae (Saccharomyces cerevisiae, UniProt P53341); test: α-Glucosidase inhibitory assay (pNPG substrate); format: biochemical; details: for IC50: IC50 α-Glucosidase
T1 construct: purchased Sigma Aldrich Inc. (St. Louis, MO. USA)
From the text: (§1) Folin–Ciocalteu reagent was bought from Merck (Darmstadt, Germany). Fetal bovine serum (FBS), penicillin-streptomycin, Dulbecco’s Modified Eagle Medium, high glucose (DMEM, high glucose), Roswell Park Memorial Institute (RPMI) 1640 medium, trypsin-EDTA, trypan blue dyes, and 3-(4,5-dimethylthiazol-2-yl)-2,5 diphenyltetrazolium bromide (MTT) were obtained from Thermo Fisher Scientific (Waltham, CA, USA). Ethanol, methanol, hexane, dichloromethane, ethyl acetate, and acetone (as analytical grades) were purchased from Labscan Asia Co., Bangkok, Thailand.
The inhibitory effects against α-glucosidase enzyme of crude extract, partitioned fractions, and all isolated pure compounds were examined according to previous assay. In brief, 50 µL of each sample in 50 mM phosphate buffer, pH 6.9 (at various concentrations), was pre-mixed with 50 µL of 0.57 U/mL α-glucosidase enzyme for 10 min at 37 °C. Then, 50 µL of 5 mM pNPG substrate was added into the mixture and further incubated for 30 min, after that stopping the reaction by 50 µL of 1 M sodium carbonate solution (Na2CO3). A microplate reader (DTX880 Multimode Detector, Beckman Coulter®, Wien, Austria) immediately measured the absorbance at 405 nm. The following equation calculated the percentage of inhibition: [(Acontrol − Asample)/Acontrol] × 100, where Acontrol and Asample were the absorbance of reaction without and with the sample, respectively.

[4] = molecular target: T2, dipeptidyl peptidase-IV (DPP-IV) from porcine kidney (Sus scrofa, UniProt P22411); test: Dipeptidyl peptidase-IV (DPP-IV) inhibitory assay (GP-p-NA substrate); format: biochemical
T2 construct: purchased Sigma Aldrich Inc. (St. Louis, MO. USA); host or cells: porcine kidney (tissue-derived enzyme)
From the text: as §1
The DPP-IV inhibition activities of crude extract, partitioned fractions, and isolated pure compounds were investigated, following the procedure of Van et al. (2009) and Al-Masri et al. (2009), with some modifications. Concisely, 40 µL of each sample diluted in 50 mM Tris-HCl buffer, pH 8.0 (at final concentration 50 ug/mL), was pre-incubated with 30 µL of 0.05 U/mL of DPP-IV enzyme at 37 °C. After 10 min, 100 µL of 0.2 mM GP-p-NA substrate was added to the solution and further incubated for 30 min. Then, the reaction was terminated with 30 µL of 25% acetic acid, and the absorbance at 405 nm was suddenly measured by a microplate reader (DTX880 Multimode Detector, Beckman Coulter®, Wein, Austria). The percentage of inhibition was calculated, following the formula: [(Acontrol − Asample)/Acontrol] × 100, where Acontrol and Asample were the absorbances of reaction with and without sample, respectively. Diprotin A was employed as a positive control, and the results were presented as the IC50 value.

[5] = tested on: 3T3-L1 adipocytes; test: Glucose uptake assay in differentiated 3T3-L1 adipocytes (GO kit); format: cell-based, mouse; details: for glucose uptake stimulation: positive control
Description: The 3T3-L1 pre-adipocytes were induced to differentiate into adult adipocytes after 48 h of confluence in 48 wells plate. The cells were incubated with cultured media, comprising of 1 µg/mL insulin, 10 µM dexamethasone, and 0.5 mM IBMX. After 48 h of incubation, differentiate media were removed and replaced with cultured media containing 1 µg/mL insulin. Then, the maintained media were changed every two days for eight days.
The glucose uptake stimulatory effect of crude extract, partitioned fractions, and isolated compounds was determined by the previously described method [60]. Briefly, differentiated adipocytes were grown in 48-well plates, with cultured media containing 2% FBS, for 18 h. Then, the cells were washed and treated with various concentrations of samples in a complete low glucose medium. After 24 h of incubation, the treated medium of samples was individually transferred into 96-well plates and mixed with the reagent of the GO kit at 37 °C for 30 min. The reaction was terminated by 6M H2SO4, and the absorbance of remaining glucose at 540 nm was recorded by a microplate reader. The ability to enhance glucose uptake was measured by the amount of glucose in the media. The percentage of glucose uptake stimulation was calculated by following equation: %stimulation = [(Acontrol − Asample)/Acontrol] × 100, where Acontrol and Asample were the absorbances of reaction with and without sample, respectively.

[6] = molar value, in parentheses in Table 3

T1 sequence (P53341 whole entry): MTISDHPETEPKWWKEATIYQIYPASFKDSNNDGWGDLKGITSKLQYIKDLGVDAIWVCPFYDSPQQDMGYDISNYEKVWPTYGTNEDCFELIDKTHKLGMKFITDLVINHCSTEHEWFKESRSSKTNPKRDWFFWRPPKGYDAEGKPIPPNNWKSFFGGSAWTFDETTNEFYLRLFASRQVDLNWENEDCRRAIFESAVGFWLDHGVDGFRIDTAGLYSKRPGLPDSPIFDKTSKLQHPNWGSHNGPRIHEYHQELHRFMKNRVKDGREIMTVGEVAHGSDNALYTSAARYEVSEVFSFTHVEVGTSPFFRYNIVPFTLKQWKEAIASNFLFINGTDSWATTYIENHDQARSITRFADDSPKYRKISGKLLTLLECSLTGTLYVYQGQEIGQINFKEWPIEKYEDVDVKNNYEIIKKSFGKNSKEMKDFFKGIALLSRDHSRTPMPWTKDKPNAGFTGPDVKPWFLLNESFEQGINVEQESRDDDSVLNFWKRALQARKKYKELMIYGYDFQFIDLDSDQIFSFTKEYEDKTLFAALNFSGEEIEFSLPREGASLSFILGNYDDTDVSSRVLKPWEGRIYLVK
T2 sequence (P22411 whole entry): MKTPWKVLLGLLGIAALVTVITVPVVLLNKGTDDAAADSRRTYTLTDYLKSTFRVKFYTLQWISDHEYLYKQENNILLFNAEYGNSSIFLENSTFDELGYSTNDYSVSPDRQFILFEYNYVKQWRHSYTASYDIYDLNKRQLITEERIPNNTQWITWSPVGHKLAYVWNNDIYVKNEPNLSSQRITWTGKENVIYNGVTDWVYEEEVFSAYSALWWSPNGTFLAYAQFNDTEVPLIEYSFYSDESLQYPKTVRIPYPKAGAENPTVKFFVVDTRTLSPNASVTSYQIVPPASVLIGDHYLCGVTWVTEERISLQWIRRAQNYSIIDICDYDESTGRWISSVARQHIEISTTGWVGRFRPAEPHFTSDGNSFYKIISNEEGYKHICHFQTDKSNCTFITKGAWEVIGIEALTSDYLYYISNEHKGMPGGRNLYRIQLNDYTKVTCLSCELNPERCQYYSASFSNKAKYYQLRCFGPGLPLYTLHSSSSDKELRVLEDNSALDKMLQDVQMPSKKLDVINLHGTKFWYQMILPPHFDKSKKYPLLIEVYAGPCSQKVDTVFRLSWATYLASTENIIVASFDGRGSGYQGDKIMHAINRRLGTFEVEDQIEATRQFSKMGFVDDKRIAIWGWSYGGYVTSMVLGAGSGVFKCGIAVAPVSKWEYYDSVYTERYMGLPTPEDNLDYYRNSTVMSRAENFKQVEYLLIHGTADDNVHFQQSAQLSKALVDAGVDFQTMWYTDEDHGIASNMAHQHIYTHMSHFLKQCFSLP

Compound: C[C@@H]1O[C@@H](Oc2coc3cc(O)cc(O)c3c2=O)[C@H](O)[C@H](O)[C@H]1O [3,5,7-Trihydroxychromone-3-O-α-L-rhamnopyranoside]
IC50 α-glucosidase inhibitory effect [1]: 540 µg/mL (≈ 1590 µM)

Compound: COc1ccc2c(c1)c(CC(=O)O)c(C)n2C(=O)c1ccc(Cl)cc1 [Indomethacin, indomethacin, reference compound]
effect on NO production (in words) [2]: potent anti-inflammatory

Compound: Oc1cc(O)c2c(c1)O[C@H](c1ccc(O)c(O)c1)[C@H](O)C2 [Epicatechin]
α-glucosidase inhibitory ability (in words) [3]: no effect
IC50 [4]: > 50 µM
IC50 [4, 6]: > 50 µM
effect on NO production (in words) [2]: inhibitory effect on NO production at only high concentrations

Compound: CN(C)C(=N)N=C(N)N [metformin, reference compound]
glucose uptake stimulation ([5]; 2 mM): 85.34%

Compound: O=C(O)c1cc(O)c(O)c(O)c1 [Gallic acid]
α-glucosidase inhibitory ability (in words) [3]: no effect
IC50 [3]: > 25 µM
IC50 [3, 6]: > 25 µM
IC50 [4]: > 50 µM
IC50 [4, 6]: > 50 µM
effect on NO production (in words) [2]: inhibitory effect on NO production at only high concentrations

IC50 [4]: 14.1 µM
IC50 [4, 6]: 14.1 µM
Compound: Oc1ccc(/C=C/c2cc(O)cc(O)c2)cc1 [Resveratrol]
effect on NO production (in words) [2]: inhibitory effect on NO production at only high concentrations

Compound: insulin
glucose uptake stimulation ([5]; 100 nM): 92.81%

IC50 [4]: 8.24 µM
IC50 [4, 6]: 8.25 µM
Compound: O=c1c(O)c(-c2ccc(O)c(O)c2)oc2cc(O)cc(O)c12 [Quercetin]
glucose uptake stimulation effect (in words) ([5]; Figure 4): higher glucose uptake stimulation effect than resveratrol, gallic acid, and epicatechin
effect on NO production (in words) [2]: no effect
